Tested on: UCP1
Test: UCP1 mRNA expression (Q-RT-PCR) in WT-1 brown preadipocytes
Type: cell-based, murine
Conditions: WT-1, 24 hours; vs vehicle
Experimental: Total RNA was isolated with QIAzol lysis reagent (Qiagen, Valencia, Calif.) and purified by RNeasy Mini columns (Qiagen) following the manufacture's instructions. cDNA was prepared from total RNA using the Advantage RT-PCR kit (BD Biosciences, Palo Alto, Calif.) according to manufacturer's instructions. Diluted cDNA was used in a PCR reaction with SYBR Green Master Mix (Applied Biosystems, Foster City, Calif.) and primers specifically designed for detection of the gene of interest. PCR reactions were run in duplicate for each sample and quantitated in the ABI Sequence Detection System (Applied Biosystems). Data were expressed as arbitrary units after normalization to levels of expression of internal controls for each sample. Sequences of primers for specific genes are each obtained from the published literature or designed using publically available gene sequence databases. Unless otherwise indicated, gene expression data described in the examples below was obtained using QPCR.
The effect of FGF6 on differentiation of WT-1 murine brown preadipocytes was also examined. WT-1 cells can be induced to undergo brown adipocyte differentiation, characterized by lipid accumulation and expression of adipogenic and brown fat markers, as described above (Klein et al. (1999) J Biol Chem 274:34795; Tseng et al. (2005) Nat Cell Biol 7:601). WT-1 cells were treated with FGF6 in growth media (DMEM+10% FBS), a vehicle control (“control” or “C” referred to in FIGS. 3A-D), or induction media (“induction” or “I” referred to in FIGS. 3A-D) as described above for seven days. Following the treatment, cells were examined for the color of the culture media in combination with oil Red O staining, expression of adipogenic markers, expression of brown fat markers, immunofluorescent staining of cells with UCP1 and DPAI, and Western blot analysis to determine the presence of UCP1 and β-tubulin. The results are described in FIGS. 3A to 3D.
UCP1 mRNA expression in brown adipocyte cells was determined at FGF6 concentrations ranging from 0 to 300 ng/ml in the absence of induction cocktail.
In order to determine the length of time necessary to induce UCP1 expression upon exposure to of cells to FGF6, an experiment was performed whereby FGF6 was administered to brown preadipocytes at a concentration of 200 ng/ml and UCP1 expression was determined. FGF21 and a control were also used in the time course experiment. FGF21, a member of the endocrine FGF ligands that has been implicated in the browning of white fat (Fisher F. M. et al., Genes Dev. 26:271-281, 2012). […] FGF6 could acutely induce a significant increase of UCP1 expression as early as 4 hours after a 200 ng/ml dose, as described in FIG. 4B. At 24 hours, the fold-induction of UCP1 mRNA by FGF6 reached 700-fold higher than the untreated cells, as described in FIG. 4B.
To assess FGF6's role in the regulation of mitochondrial activity, FGF6 was stably expressed in WT-1 brown preadipocytes and 3T3-F442A white preadipocytes. Stable cells were generated by viral infection followed by drug selection.
FGF2, FGF6 and FGF9 were used at a dosage of 50 ng/mL, 100 ng/mL, 200 ng/mL or 300 ng/mL. FGF21 was used at the dosage of 50 ng/ml and 500 ng/mL. The concentration of BMP7 was 3.3 nM. RNA was isolated and UCP1 and PPARγ expression levels were evaluated by quantitative reverse transcription polymerase chain reaction (Q-RT-PCR) analysis after 24 hours (i.e., 1 day) (FIG. 14A), 2 days (FIG. 14B), 5 days (FIG. 14C) and 7 days (FIG. 14D) of treatment. All experiments were performed triplicate and the data are presented as mean+/−SEM.
FGF2, FGF6 and FGF9 were used at a dosage of 200 ng/mL. FGF21 was used at a dosage of 500 ng/mL. The concentration of BMP7 was 3.3 nM. mRNA was isolated and UCP1 and PPARγ expression levels were evaluated by quantitative reverse transcription polymerase chain reaction (Q-RT-PCR) analysis after 24 hours (i.e., 1 day), 2 days, 5 days and 7 days of treatment (FIG. 15). […]

SMILES	UCP1 mRNA expression
CCCCC[C@H](O)/C=C/[C@H]1[C@H](O)CC(=O)[C@@H]1C/C=C\CCCC(=O)O [PGE2, reference compound]	significantly induced
CCCCC[C@H](O)/C=C/[C@@H]1[C@H]2C/C(=C/CCCC(=O)O)O[C@H]2C[C@H]1O [PGI2, reference compound]	significantly induced
